For 25 compounds, IC50 results are on record in patent US9763957B2, “Autotaxin inhibitors” (Novartis AG, priority 2013, dated 2017).

This experiment deals with Recombinant human ATX (Homo sapiens (Human), UniProt Q13822). Description: ATX inhibition assay (choline release, Amplex Red fluorescence). Format: biochemical. The settings on record: ATX 10 nM, LPC 18:1 10 μM, 37° C., 20 min pre-incubation; mean of n≧2. On the procedure:
Reagents—LPC (oleoyl (18:1)) was purchased from Avanti Polar Lipids (Alabaster, Ala.) and solubilized in methanol to 20 mM. Amplex Red was obtained from Invitrogen Life Technologies (Paisley, UK) and dissolved in DMSO to 10 mM. Choline oxidase and horseradish peroxidase (HRP) were obtained from Sigma Aldrich (Dorset, UK) and dissolved in HBSS to 20 U/ml and 200 U/ml respectively. All reagents were stored at −20° C. in single use aliquots. All experimental measurements were performed in assay buffer made up immediately prior to use (HBSS, 0.01% BSA essentially fatty acid free).
PerkinElmer EnVision (Fluorescence Intensity/Absorbance Monochromator) or Tecan Infinite 200 PRO series plate reader was used to detect change in fluorescent intensity.
Assessing ATX inhibition—ATX activity was determined by measurement of released choline in reactions containing ATX (10 nM), choline oxidase (0.1 U/ml), HRP (100 U/ml), amplex red (50 μM) and LPC 18:1 (10 μM). Compounds of the invention were prepared as 10 point serial dilutions from 1 μM in duplicate and pre-incubated with ATX at 37° C. for 20 minutes prior to the addition of remaining reagents. The liberated choline was measured from changes in fluorescence intensity (λex 530 nm, λem 590 nm) of the product resurofin at 37° C. every 2 minutes over a 40-minute period. ATX activity was measured as a slope of the linear portion of the progress curve, typically between 14 to 24 minutes.
Data analysis—Slope data was exported to Graphpad prism (Graphpad software, San Diego, Calif.) where data was fitted to equation 1. Y=Bottom+(Top-Bottom)/(1+10^((Log IC50−X)*HillSlope)) Equation 1: […]
As a reminder, the IC50 is the point on the concentration scale where inhibition reaches its midpoint. Turning to `Cc1cnn(Cc2cc(Cl)ccc2/C=C/C(=O)N2CCC(Cc3nnc(C)o3)CC2)n1` [Example 80, (E)-3-(4-Chloro-2-((4-methyl-2H-1,2,3-triazol-2-yl)methyl)phenyl)-1-(4-((5-methyl-1,3,4-oxadiazol-2-yl)methyl)piperidin-1-yl)prop-2-en-1-one], the IC50 amounted to 454 nM.
On to `Cc1nnn(Cc2cc(Cl)ccc2/C=C/C(=O)N2CCCC(c3nncn3C)C2)n1` (stereo not shown) [Example 49.16, (E)-3-(4-Chloro-2-((5-methyl-2H-tetrazol-2-yl)methyl)phenyl)-1-(3-(4-methyl-4H-1,2,4-triazol-3-yl)piperidin-1-yl)prop-2-en-1-one], for which the IC50 turned out to be 1060 nM.
With `Cc1nnn(Cc2cc(C#N)ccc2/C=C/C(=O)N2CCC(Cc3nnc(C)o3)CC2)n1` [Example 82, (E)-4-(3-(4-((5-Methyl-1,3,4-oxadiazol-2-yl)methyl)piperidin-1-yl)-3-oxoprop-1-en-1-yl)-3-((5-methyl-2H-tetrazol-2-yl)methyl)benzonitrile], the IC50 came out at 785 nM.
`Cc1nnn(Cc2cc(Cl)ccc2/C=C/C(=O)N2CCC(c3nnc(C(C)C)o3)CC2)n1` [Example 100, (E)-3-(4-Chloro-2-((5-methyl-2H-tetrazol-2-yl)methyl)phenyl)-1-(4-(5-isopropyl-1,3,4-oxadiazol-2-yl)piperidin-1-yl)prop-2-en-1-one]: the IC50 was 3.9 nM.
As to `Cc1nnn(Cc2cc(OC(F)(F)F)ccc2/C=C/C(=O)N2CCC(c3noc(C)n3)CC2)n1` [Example 3, (E)-1-(4-(5-Methyl-1,2,4-oxadiazol-3-yl)piperidin-1-yl)-3-(2-((5-methyl-2H-tetrazol-2-yl)methyl)-4-(trifluoromethoxy)phenyl)prop-2-en-1-one], the IC50 is 12 nM.
With `Cc1nnn(Cc2cc(C(F)(F)F)ccc2/C=C/C(=O)N2CCC(NCCCCc3c[nH]nn3)CC2)n1` [Example 155, (E)-1-(4-((4-(1H-1,2,3-Triazol-4-yl)butyl)amino)piperidin-1-yl)-3-(2-((5-methyl-2H-tetrazol-2-yl)methyl)-4-(trifluoromethyl)phenyl)prop-2-en-1-one], the IC50 came out at 13 nM.
Turning to `Cc1nnn(Cc2cc(Cl)ccc2/C=C/C(=O)N2CCC(n3nnc(C)n3)CC2)n1` [Example 17, (E)-3-(4-Chloro-2-((5-methyl-2H-tetrazol-2-yl)methyl)phenyl)-1-(4-(5-methyl-2H-tetrazol-2-yl)piperidin-1-yl)prop-2-en-1-one], the IC50 was 24 nM.
To `Cc1nnn(Cc2cc(C(F)(F)F)ccc2/C=C/C(=O)N2CCCCC2c2noc(C)n2)n1` (single isomer, unassigned) [Example 38b, (R or S, E)-1-(2-(5-methyl-1,2,4-oxadiazol-3-yl)piperidin-1-yl)-3-(2-((5-methyl-2H-tetrazol-2-yl)methyl)-4-(trifluoromethyl)phenyl)prop-2-en-1-one] belongs 410 nM; to `Cc1nnn(Cc2cc(Cl)ccc2/C=C/C(=O)N2CCC(O)(Cn3cc(C(F)(F)F)cn3)CC2)n1` [Example 18, (E)-3-(4-Chloro-2-((5-methyl-2H-tetrazol-2-yl)methyl)phenyl)-1-(4-hydroxy-4-((4-(trifluoromethyl)-1H-pyrazol-1-yl)methyl)piperidin-1-yl)prop-2-en-1-one], 37 nM.
On to `Cc1nnn(Cc2cc(Cl)ccc2/C=C/C(=O)N2CCCC(c3nc(C(C)C)no3)C2)n1` (single isomer, unassigned) [Example 34a, (R or S, E)-3-(4-Chloro-2-((5-methyl-2H-tetrazol-2-yl)methyl)phenyl)-1-(3-(3-isopropyl-1,2,4-oxadiazol-5-yl)piperidin-1-yl)prop-2-en-1-one], for which the IC50 was determined as 18 nM.
To `Cc1ncn(C2CCN(C(=O)/C=C/c3ccc(C(F)(F)F)cc3Cn3nnc(C)n3)CC2)n1` [Example 37, (E)-1-(4-(3-Methyl-1H-1,2,4-triazol-1-yl)piperidin-1-yl)-3-(2-((5-methyl-2H-tetrazol-2-yl)methyl)-4-(trifluoromethyl)phenyl)prop-2-en-1-one] belongs 17 nM; to `Cc1nnn(Cc2cc(Cl)ccc2/C=C/C(=O)N2CCC(Cn3cccn3)CC2)n1` [Example 49.11, (E)-1-(4-((1H-Pyrazol-1-yl)methyl)piperidin-1-yl)-3-(4-chloro-2-((5-methyl-2H-tetrazol-2-yl)methyl)phenyl)prop-2-en-1-one], 14 nM.
The result for `Cc1nnn(Cc2cc(C(F)(F)F)ccc2/C=C/C(=O)N2CCC[C@H]2CO)n1` [Example 133, (S,E)-1-(2-(Hydroxymethyl)pyrrolidin-1-yl)-3-(2-((5-methyl-2H-tetrazol-2-yl)methyl)-4-(trifluoromethyl)phenyl)prop-2-en-1-one] reads 81 nM; that for `Cc1noc(C2CCCCN2C(=O)/C=C/c2ccc(C(F)(F)F)cc2Cn2nnc(C)n2)n1` (single isomer, unassigned) [Example 5b, (R,E)-1-(2-(3-methyl-1,2,4-oxadiazol-5-yl)piperidin-1-yl)-3-(2-((5-methyl-2H-tetrazol-2-yl)methyl)-4-(trifluoromethyl)phenyl)prop-2-en-1-one or (S,E)-1-(2-(3-methyl-1,2,4-oxadiazol-5-yl)piperidin-1-yl)-3-(2-((5-methyl-2H-tetrazol-2-yl)methyl)-4-(trifluoromethyl)phenyl)prop-2-en-1-one], 120 nM; that for `Cc1nnn(Cc2cc(Cl)ccc2/C=C/C(=O)N2CCC(O)C[C@H]2C)n1` (single isomer, unassigned) [Example 50b, (E)-3-(4-chloro-2-((5-methyl-2H-tetrazol-2-yl)methyl)phenyl)-1-((2R, 4R or 4S)-4-hydroxy-2-methylpiperidin-1-yl)prop-2-en-1-one], 79 nM.
In the case of `Cc1nnn(Cc2cc(C(F)(F)F)ccc2/C=C/C(=O)N2CCN(Cc3nonc3C)CC2)n1` [Example 116, (E)-1-(4-((4-Methyl-1,2,5-oxadiazol-3-yl)methyl)piperazin-1-yl)-3-(2-((5-methyl-2H-tetrazol-2-yl)methyl)-4-(trifluoromethyl)phenyl)prop-2-en-1-one], the IC50 worked out at 33 nM.
Regarding `Cc1nnn(Cc2cc(Cl)ccc2/C=C/C(=O)N2CCCC[C@H]2C)n1` [Example 49.14, (R,E)-3-(4-Chloro-2-((5-methyl-2H-tetrazol-2-yl)methyl)phenyl)-1-(2-methylpiperidin-1-yl)prop-2-en-1-one], the IC50 is 85 nM.
In the case of `Cc1nnn(Cc2cc(C(F)(F)F)ccc2/C=C/C(=O)N2CCN(Cc3coc(C)n3)C[C@H]2CO)n1` [Example 132, (S,E)-1-(2-(Hydroxymethyl)-4-((2-methyloxazol-4-yl)methyl)piperazin-1-yl)-3-(2-((5-methyl-2H-tetrazol-2-yl)methyl)-4-(trifluoromethyl)phenyl)prop-2-en-1-one], the 50% inhibitory concentration (IC50) was determined as 14 nM.
As for `Cc1nnn(Cc2cccc(Cl)c2/C=C/C(=O)N2CCC(Cc3nnc(C)o3)CC2)n1` [Example 46, (E)-3-(2-Chloro-6-((5-methyl-2H-tetrazol-2-yl)methyl)phenyl)-1-(4-((5-methyl-1,3,4-oxadiazol-2-yl)methyl)piperidin-1-yl)prop-2-en-1-one], the IC50 is 204 nM.
Turning to `Cc1nnn(Cc2cc(C(F)(F)F)ccc2/C=C/C(=O)N2CCC(N(C)C(=O)c3ccc(F)cc3)CC2)n1` [Example 87], the IC50 amounted to 19 nM.
The result for `Cc1nnn(Cc2cc(Cl)ccc2/C=C/C(=O)N2CCC(C(O)c3ccc(Cl)cc3)CC2)n1` (single isomer, unassigned) [Example 66a, ((R or S), E)-3-(4-Chloro-2-((5-methyl-2H-tetrazol-2-yl)methyl)phenyl)-1-(4-((4-chlorophenyl)(hydroxy)methyl)piperidin-1-yl)prop-2-en-1-one] reads 4.2 nM; that for `Cc1nnn(Cc2cc(C(F)(F)F)ccc2/C=C/C(=O)N2CCC(N(C)S(=O)(=O)c3ccc(F)cc3)CC2)n1` [Example 118, (E)-4-Fluoro-N-methyl-N-(1-(3-(2-((5-methyl-2H-tetrazol-2-yl)methyl)-4-(trifluoromethyl)phenyl)acryloyl)piperidin-4-yl)benzenesulfonamide], 24 nM.
The result for `Cc1nnn(Cc2cc(OC(F)F)ccc2/C=C/C(=O)N2CCC(Cc3nnc(C)o3)CC2)n1` [Example 58, (E)-3-(4-(Difluoromethoxy)-2-((5-methyl-2H-tetrazol-2-yl)methyl)phenyl)-1-(4-((5-methyl-1,3,4-oxadiazol-2-yl)methyl)piperidin-1-yl)prop-2-en-1-one] reads 53 nM; that for `Cc1nnn(Cc2cc(Cl)ccc2/C=C/C(=O)N2CC(c3nnc(C)o3)C2)n1` [Example 85, (E)-3-(4-Chloro-2-((5-methyl-2H-tetrazol-2-yl)methyl)phenyl)-1-(3-(5-methyl-1,3,4-oxadiazol-2-yl)azetidin-1-yl)prop-2-en-1-one], 289 nM; that for `Cc1nnn(Cc2cc(Cl)ccc2COC(=O)N2CCC(c3nnc(C)o3)CC2)n1` [Example 47, 4-Chloro-2-((5-methyl-2H-tetrazol-2-yl)methyl)benzyl 4-(5-methyl-1,3,4-oxadiazol-2-yl)piperidine-1-carboxylate], 442 nM.
